Among the test systems are LXFL 529 NSCLC; HOP-18 NSCLC; DLD-1 colon; DMS 114 small cell lung; MDA-N; PC-3 prostate; SNB-78 CNS; M19-MEL melanoma; RXF-631 renal.
Holding throughout (assay): DTP human tumour cell line panel, 48 h

The structures appear in SMILES notation. Where “and” joins values, the source holds several entries; their conditions need not be identical. Identical values can stand only once.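 Test compounds were applied to cells in 96-well plates for 48 hours at 5 doses. GI50 = concentration required for 50% inhibition of growth. At the TGI there is no net growth.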

On to `CNS(=O)(=O)NN(C)S(=O)(=O)c1ccc(F)cc1`, for which the TGI with LXFL 529 NSCLC, with HOP-18 NSCLC, in the experiment on DLD-1 colon and with DMS 114 small cell lung was above 100 µM in each case.

For `CCCCOc1ccc(NC(N)=Nc2ccc(Cl)cc2)cc1`, the TGI in the experiment with MDA-N is 19.5 µM; with PC-3 prostate it was 18.3 µM.

Turning to `COc1c2c(c3c(c1CCC(=O)O)OC(C)(C)C=C3)OC(C)(C)C=C2`, the TGI in the experiment with MDA-N and in the experiment on PC-3 prostate was above 100 µM in each case.

In the case of `O=Cc1cn(C(=O)c2ccccc2)c2ccccc12`, the TGI in the experiment with SNB-78 CNS, with LXFL 529 NSCLC, with DLD-1 colon, with DMS 114 small cell lung and with M19-MEL melanoma was above 100 µM throughout.

For `O=C(CP(=O)(O)O)c1cccs1`, the TGI in the experiment on SNB-78 CNS, in the experiment on LXFL 529 NSCLC, in the experiment on HOP-18 NSCLC, in the experiment with DLD-1 colon, with DMS 114 small cell lung and with M19-MEL melanoma was above 100 µM throughout.

For the compound `COC(=O)/C=C/C=C(c1ccccc1)c1ccccc1`, in the experiment on PC-3 prostate, the GI50 is 4.67 µM and the TGI is above 100 µM.

Turning to `COc1cccc(/C=C/C(=O)c2cccc(Nc3nc(Nc4ccccc4)nc(Nc4ccccc4)n3)c2)c1`, in the experiment on PC-3 prostate, the GI50 was 5.21 µM and the TGI was above 67.2 µM.

In the case of `CCNC(=O)Nc1ccccn1`, the TGI in the experiment on MDA-N and in the experiment on PC-3 prostate was above 100 µM each time.

Regarding `CSC1CC2C(CC1(C)O)C2(C)C` (centres undefined), the TGI in the experiment with SNB-78 CNS was above 100 µM; in the experiment on LXFL 529 NSCLC, above 100 µM; in the experiment on DLD-1 colon, above 100 µM; in the experiment on DMS 114 small cell lung, 72.1 µM and > 100 µM; in the experiment with M19-MEL melanoma, above 100 µM. Also, in the experiment on DMS 114 small cell lung, the GI50 is 15.7 µM and > 100 µM.

Take `CC1SC(c2c(Cl)cccc2Cl)N(NC(=O)c2[nH]c3ccc(F)cc3c2-c2ccccc2)C1=O` (centres undefined): in the experiment on PC-3 prostate, the GI50 is 1.98 µM and the TGI turned out to be 4.46 µM.

With `C=CCC1([C@H](C)[C@@H](OC(C)=O)c2cc(OC)c(OC)c(OC)c2)C[C@@H](OC)CCC1=O` (some centres undefined), the TGI is 31.2 µM in the experiment on LXFL 529 NSCLC, 37.5 µM in the experiment with DLD-1 colon, 44.4 µM with DMS 114 small cell lung and 91.3 µM in the experiment on M19-MEL melanoma.

For `OC[C@@H](O)[C@H]1NC[C@@H](O)[C@H]1O`, the TGI with MDA-N and in the experiment with PC-3 prostate was above 100 µM in each case.

With `C=C1C(=O)O[C@H]2[C@H]1CC/C(COC(=O)NCc1ccccc1OC)=C\CC[C@@]1(C)O[C@@H]21`, in the experiment with PC-3 prostate, the GI50 was 3.13 µM and the TGI turned out to be 10.6 µM.

As for `COc1ccc2nc3cc([N+](=O)[O-])ccc3c(NCCCCCN(C)C)c2c1`, in the experiment with MDA-N, the GI50 was 0.438 µM and the TGI stood at 1.57 µM. Moreover, the TGI with PC-3 prostate is 1.75 µM.

For `COc1c(CCC[P+](c2ccccc2)(c2ccccc2)c2ccccc2)cc2c(c1OC)OCO2`, in the experiment on PC-3 prostate, the GI50 was 0.961 µM and the TGI stood at 22.4 µM.

In the case of `Cc1ccc(/C=C2\CN(C(=O)OC(C)(C)C)C/C(=C\c3ccc(C)cc3)C2=O)cc1`, in the experiment with PC-3 prostate, the GI50 is 0.452 µM and the total growth inhibition concentration (TGI) is above 100 µM.

For the compound `O=C([O-])c1ccccc1Nc1ccccn1.O=C([O-])c1ccccc1Nc1ccccn1.[Ni+2]`, the GI50 with SNB-78 CNS was 91.8 µM; in the experiment on LXFL 529 NSCLC, 55.2 µM; in the experiment on DLD-1 colon, above 100 µM; in the experiment on DMS 114 small cell lung, above 100 µM; in the experiment on M19-MEL melanoma, above 100 µM. Also, the TGI with SNB-78 CNS, with LXFL 529 NSCLC, with DLD-1 colon, with DMS 114 small cell lung and in the experiment on M19-MEL melanoma was above 100 µM each time.

`CC(C)(C)C#CC1=C(Br)C(=O)OC1`: in the experiment on PC-3 prostate, the GI50 was 2.39 µM and the TGI was 11.2 µM.

In the case of `O=C(c1ccc(F)cc1)c1cccc(C(=O)c2ccc(F)cc2)n1`, the TGI was above 100 µM in the experiment on MDA-N; above 58.1 µM in the experiment with SNB-78 CNS; above 100 µM in the experiment with PC-3 prostate; above 100 µM in the experiment on LXFL 529 NSCLC; above 100 µM with HOP-18 NSCLC; above 100 µM with DLD-1 colon. The values for the TGI with DMS 114 small cell lung and in the experiment on M19-MEL melanoma were 96.4 µM and above 100 µM, respectively.

In the case of `Cc1ccc(S(=O)(=O)N2CCSCCSCCSCCSCC2)cc1`, the TGI in the experiment on MDA-N and with PC-3 prostate was above 100 µM in each case.

For the compound `COC(=O)[C@]12CC[C@@H](C)[C@H](C)[C@@H]1C1=CC[C@@H]3[C@@]4(C)C[C@@H](OC(C)=O)[C@H](O)[C@@](C)(COC(C)=O)[C@@H]4[C@H](O)C[C@@]3(C)[C@]1(C)CC2`, in the experiment with PC-3 prostate, the GI50 was 1.86 µM and the TGI worked out at 7.05 µM.

As to `Cc1cc(N(CCC#N)S(=O)(=O)c2ccccc2)ccc1/C=C1N=C(/C=C/c2ccccc2)OC\1=O`, the TGI in the experiment with SNB-78 CNS, in the experiment with LXFL 529 NSCLC, in the experiment with DLD-1 colon and in the experiment with DMS 114 small cell lung was above 100 µM in each case.

Turning to `CC/C=C\C=C/C(=O)N/C=C/CC1Cc2cccc(O)c2C(=O)O1` (centres undefined), in the experiment on PC-3 prostate, the GI50 is 25.3 µM and the TGI was above 100 µM.

For `CCCN=Cc1cc(Cc2ccc(O)c(C=NCCC)c2)ccc1O`, the TGI in the experiment on MDA-N is 10.1 µM; in the experiment on PC-3 prostate, 5.89 µM.

With `CCN(CC)S(=O)(=O)c1ccc(OC)c(Nc2ncc(-c3ccccc3)o2)c1`, in the experiment on PC-3 prostate, the GI50 is above 15.9 µM and the TGI is above 25 µM.

Consider `O=c1c2c([nH]c3cc4c(cc13)OCO4)-c1ccccc1CC2`, for which the TGI with LXFL 529 NSCLC, with DLD-1 colon, in the experiment with DMS 114 small cell lung, in the experiment with M19-MEL melanoma and with RXF-631 renal was above 100 µM each time.

With `CC(C)(C)C[C@H]1NC(C(=O)NCC[C@H](O)CO)[C@H](c2cccc(Cl)c2)[C@@]12C(=O)Nc1cc(Cl)c(F)cc12` (some centres undefined), in the experiment with PC-3 prostate, the GI50 is 14.9 µM and the TGI was 34.7 µM.

A word on the TGI: it is the concentration giving total growth inhibition. Lower therefore signals greater sensitivity of the cells. As a reminder, the GI50 is the concentration that inhibits growth by half.

Values taken from PubChem BioAssay (NCI).
